Usually IC50 stands for the concentration that gives 50% inhibition.

SMILES strings stand for the structures.

Assay [1] deals with MOLM-13 cells. Description: Cell proliferation assay (alamarBlue), MOLM-13. In kind it is cell-based. The following applies: 96 hours incubation, inhibition of cell proliferation. The essentials: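 Cells in RPMI1640/10% FCS read by alamarBlue fluorescence (ex 530, em 590 nm) after overnight 37 °C incubation, then treated at 1E-5 to 1E-8 M for 96 h. Pre-treatment values subtracted from endpoint values and compared with buffer-only wells; IC50 is 50% proliferation inhibition.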

For assay [2], the target named is T1, BRD4 (BD1) (Homo sapiens, UniProt O60885).
T1 construct: with relatively long constructs also being possible, preferably amino acids 44-168; made in house; host or cells: E. coli
Description: Binding assay BRD4/acetylated peptide H4 (TR-FRET protein-protein interaction assay). The essentials: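 His6-BRD4 BD1 (aa 67-152, E. coli), usually 10 nM, with biotinylated tetra-acetylated H4 peptide in HEPES pH 7.5 buffer; 11 compound concentrations 0.1 nM–20 μM in duplicate, 10 min preincubation, 1 h at 22 °C then ≥3 h at 4 °C. TR-FRET 665/620 ratio; IC50 by 4-parameter fit.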

Turning to `CNC(=O)N1N=C(c2ccc(-c3sc(C)nc3C)cc2)c2cc(OC)c(OC)cc2C[C@@H]1C` (single isomer, unassigned) [Example 46.1], the IC50 in assay [1] (Homo sapiens) came out at 5140 nM; in assay [2] it was 960 nM.
The like results for `CNC(=O)N1N=C(c2ccc(N3CCOCC3)cc2)c2cc(OC)c(OC)cc2C[C@H]1C` [Example 7.1, (4R)-7,8-dimethoxy-N,4-dimethyl-1-[4-(morpholin-4-yl)phenyl]-4,5-dihydro-3H-2,3-benzodiazepine-3-carboxamide] were, in that order, > 10000 nM and 3190 nM.
Turning to `CNC(=O)N1N=C(c2ccc(-c3cnn(C)c3)cc2)c2cc(OC)ccc2C[C@@H]1C` [Example 21, (4S)-8-methoxy-N,4-dimethyl-1-[4-(1-methyl-1H-pyrazol-4-yl)phenyl]-4,5-dihydro-3H-2,3-benzodiazepine-3-carboxamide], the half-inhibitory concentration (IC50) in assay [1] (Homo sapiens) was 560 nM; in assay [2], 130 nM.
The like results for `CCc1cc(C2CC2)nn1-c1ccc(C2=NN(C(=O)NC)[C@@H](C)Cc3ccc(OC)cc32)cc1` [Example 24] were, in that order, 1170 nM and 250 nM.
The like results for `CCc1cc(C2CC2)n(-c2ccc(C3=NN(C(=O)NC)[C@@H](C)Cc4ccc(OC)cc43)cc2)n1` [Example 25, (4S)-1-[4-(5-cyclopropyl-3-ethyl-1H-pyrazol-1-yl)phenyl]-8-methoxy-N,4-dimethyl-4,5-dihydro-3H-2,3-benzodiazepine-3-carboxamide] were, in that order, 740 nM and 160 nM.
The like results for `CNC(=O)N1N=C(c2ccc(-n3nc(C4CC4)cc3-c3ccccn3)cc2)c2cc(OC)ccc2C[C@@H]1C` [Example 29, (4S)-1-{4-[3-cyclopropyl-5-(pyridin-2-yl)-1H-pyrazol-1-yl]phenyl}-8-methoxy-N,4-dimethyl-4,5-dihydro-3H-2,3-benzodiazepine-3-carboxamide] were, in that order, 360 nM and 130 nM.
With `CNC(=O)N1N=C(c2ccc(-n3cnnn3)cc2)c2cc(OC)ccc2C[C@@H]1C` [Example 30, (4S)-8-Methoxy-N,4-dimethyl-1-[4-(1H-tetrazol-1-yl)phenyl]-4,5-dihydro-3H-2,3-benzodiazepine-3-carboxamide], the values for the half-inhibitory concentration (IC50) in assay [1] (Homo sapiens) and in assay [2] were 790 nM and 230 nM, respectively.
As to `CNC(=O)N1N=C(c2ccc(Cl)cc2)c2cc(OCCN3CCCC3)ccc2CC1C` (stereo not drawn) [Example 33], the concentration for half-maximal inhibition (IC50) in assay [1] came out at 3310 nM; in assay [2], 770 nM.
In the case of `CNC(=O)N1N=C(c2ccc(N3CCN(C)CC3=O)cc2)c2cc(OC)c(OC)cc2C[C@@H]1C` [Example 43.1, (4S)-7,8-dimethoxy-N,4-dimethyl-1-[4-(4-methyl-2-oxopiperazin-1-yl)phenyl]-4,5-dihydro-3H-2,3-benzodiazepine-3-carboxamide], the IC50 in assay [1] (Homo sapiens) is 810 nM; in assay [2] it was 170 nM.
The like results for `CNC(=O)N1N=C(c2ccc(N3CCN(C)CC3=O)cc2)c2cc(OC)c(OC)cc2C[C@H]1C` [Example 43.2, (4R)-7,8-dimethoxy-N,4-dimethyl-1-[4-(4-methyl-2-oxopiperazin-1-yl)phenyl]-4,5-dihydro-3H-2,3-benzodiazepine-3-carboxamide] were, in that order, 9850 nM and 4520 nM.
In the case of `CNC(=O)N1N=C(c2ccc(-c3cn(C)nn3)cc2)c2cc(OC)c(OC)cc2C[C@@H]1C` [Example 45.1, (4S)-7,8-dimethoxy-N,4-dimethyl-1-[4-(1-methyl-1H-1,2,3-triazol-4-yl)phenyl]-4,5-dihydro-3H-2,3-benzodiazepine-3-carboxamide], the half-inhibitory concentration (IC50) in assay [1] (Homo sapiens) is 220 nM; in assay [2], 70 nM.
On the same counts, the results for `CNC(=O)N1N=C(c2ccc(-c3ccc(O)nc3)cc2)c2cc(OC)c(OC)cc2C[C@@H]1C` [Example 49.1, (4S)-1-[4-(6-hydroxypyridin-3-yl)phenyl]-7,8-dimethoxy-N,4-dimethyl-4,5-dihydro-3H-2,3-benzodiazepine-3-carboxamide] are 230 nM and 20 nM.
On the same counts, the results for `CNC(=O)N1N=C(c2ccc(-c3ccc(C(F)(F)F)nc3)cc2)c2cc(OC)c(OC)cc2C[C@@H]1C` [Example 50.1, (4S)-7,8-dimethoxy-N,4-dimethyl-1-{4-[6-(trifluoromethyl)pyridin-3-yl]phenyl}-4,5-dihydro-3H-2,3-benzodiazepine-3-carboxamide] are 370 nM and 110 nM.
On the same counts, the results for `CNC(=O)N1N=C(c2ccc(-c3c(C)nn(C)c3C)cc2)c2cc(OC)c(OC)cc2C[C@H]1C` [Example 51.1, (4R)-7,8-dimethoxy-N,4-dimethyl-1-[4-(1,3,5-trimethyl-1H-pyrazol-4-yl)phenyl]-4,5-dihydro-3H-2,3-benzodiazepine-3-carboxamide] are > 10000 nM and 1860 nM.
Turning to `CNC(=O)N1N=C(c2ccc(N3CCN(C)CC3)cc2)c2cc(OC)c(OC)cc2C[C@H]1C` [Example 127.2, (4R)-7,8-dimethoxy-N,4-dimethyl-1-[4-(4-methylpiperazin-1-yl)phenyl]-4,5-dihydro-3H-2,3-benzodiazepine-3-carboxamide], the results for the IC50 in assay [1] (Homo sapiens) and in assay [2] were > 10000 nM and 8800 nM, respectively.
Turning to `CNC(=O)N1N=C(c2ccc(N3CCC3)cc2)c2cc(OC)c(OC)cc2C[C@H]1C` [Example 128.1, (4R)-1-[4-(azetidin-1-yl)phenyl]-7,8-dimethoxy-N,4-dimethyl-4,5-dihydro-3H-2,3-benzodiazepine-3-carboxamide], the IC50 is > 10000 nM in assay [1] (Homo sapiens) and 3980 nM in assay [2].
As for `CNC(=O)N1N=C(c2ccc(N3CC(F)C3)cc2)c2cc(OC)c(OC)cc2C[C@H]1C` [Example 129.1, (4R)-1-[4-(3-fluoroazetidin-1-yl)phenyl]-7,8-dimethoxy-N,4-dimethyl-4,5-dihydro-3H-2,3-benzodiazepine-3-carboxamide], the figures for the IC50 in assay [1] (Homo sapiens) and in assay [2] were > 10000 nM and 6620 nM, respectively.
The like results for `CNC(=O)N1N=C(c2ccc(N3CCN(C(C)=O)CC3)cc2)c2cc(OC)c(OC)cc2C[C@H]1C` [Example 132.1, (4R)-1-[4-(4-acetylpiperazin-1-yl)phenyl]-7,8-dimethoxy-N,4-dimethyl-4,5-dihydro-3H-2,3-benzodiazepine-3-carboxamide] were, in that order, 7560 nM and 4080 nM.
On the same counts, the results for `CNC(=O)N1N=C(c2ccc(N3CCN(C(C)=O)CC3)cc2)c2cc(OC)c(OC)cc2C[C@@H]1C` [Example 132.2, (4S)-1-[4-(4-acetylpiperazin-1-yl)phenyl]-7,8-dimethoxy-N,4-dimethyl-4,5-dihydro-3H-2,3-benzodiazepine-3-carboxamide] are 230 nM and 20 nM.
For `CNC(=O)N1N=C(c2ccc(N3CCN(C(=O)C(C)(C)O)CC3)cc2)c2cc(OC)c(OC)cc2C[C@@H]1C` [Example 134.1, (4S)-1-{4-[4-(2-hydroxy-2-methylpropanoyl)piperazin-1-yl]phenyl}-7,8-dimethoxy-N,4-dimethyl-4,5-dihydro-3H-2,3-benzodiazepine-3-carboxamide], the IC50 in assay [1] (Homo sapiens) came out at 80 nM; in assay [2] it was 30 nM.
On the same counts, the results for `CNC(=O)N1N=C(c2ccc(N3CCS(=O)(=O)CC3)cc2)c2cc(OC)c(OC)cc2C[C@@H]1C` [Example 136, (4S)-1-[4-(1,1-dioxidothiomorpholin-4-yl)phenyl]-7,8-dimethoxy-N,4-dimethyl-4,5-dihydro-3H-2,3-benzodiazepine-3-carboxamide] are 200 nM and 20 nM.
